The structures appear in SMILES notation. Counter-ions that a name gives are not always drawn.

For this experiment, the system named is RSV Long strain. Nature of the experiment: Viral cytopathic effect (CPE) assay, anti-RSV activity. Format: cell-based, Respiratory Syncytial Virus. The conditions noted are these: human respiratory syncytial virus, 144 h, RSV Long strain (ATCC); cell viability after 6 days, Cell Counting kit-8. An outline of the steps:
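EC50 was derived from CCK-8 viability at 450/630 nm measured 6 days post-infection. Infection used enough RSV Long strain for approximately 80–90% cytopathic effect, in the presence of half-log serially diluted compound. Cells were plated the day before at 6×10^3 per well in DMEM/10% FBS.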
Background: Cytopathic effects are the visible damage that an infection or toxin causes in cultured cells.
Take `Cc1ccc2nc(N3CCS(=O)(=O)c4ccccc4C3)cc(NCCCNC3COC3)c2c1` [Example 45-1, N-[2-(1,1-Dioxido-2,3-dihydro-1,4-benzothiazepin-4(5H)-yl)-6-methylquinolin-4-yl]-N′-(oxetan-3-yl)propane-1,3-diamine]: the EC50 was determined as 0.021 µM.
`N[C@@H]1CN(c2cc(N3CCS(=O)(=O)c4ccccc4C3)nc3ccc(Cl)cc23)C[C@H]1F` (relative stereo) [Example 19-5, trans-1-[6-Chloro-2-(1,1-dioxido-2,3-dihydro-1,4-benzothiazepin-4(5H)-yl)quinolin-4-yl]-4-fluoropyrrolidin-3-amine] came in with an EC50 of 3.07 µM.
The result for `CC(=O)Nc1cc(N2CCS(=O)(=O)c3ccccc3C2)nc2ccc(C)cc12` [Example 3-60, N-[2-(1,1-Dioxido-2,3-dihydro-1,4-benzothiazepin-4(5H)-yl)-6-methylquinolin-4-yl]acetamide] reads 0.617 µM.
The result for `NCC1(CNc2cc(N3CC[S+]([O-])c4ccccc4C3)nc3ccc(Cl)cc23)COC1` (centres unmarked) [Example 18-9, N-{[3-(Aminomethyl)oxetan-3-yl]methyl}-6-chloro-2-(1-oxido-2,3-dihydro-1,4-benzothiazepin-4(5H)-yl)quinolin-4-amine] reads 0.005 µM; that for `Cc1ccc2nc(N3CCC(F)(F)c4ccccc4C3)cc(N[C@H]3CC[C@@H](N)CC3)c2c1` [Example 110-9, cis-N-[2-(5,5-Difluoro-1,3,4,5-tetrahydro-2H-2-benzazepin-2-yl)-6-methylquinolin-4-yl]cyclohexane-1,4-diamine], 1.37 µM.
In the case of `Cc1ccc2nc(N3CCS(=O)(=O)c4ccccc4C3)cc(NC(=O)c3ccccc3)c2c1` [Example 3-59, N-[2-(1,1-Dioxido-2,3-dihydro-1,4-benzothiazepin-4(5H)-yl)-6-methylquinolin-4-yl]benzamide] it was 1.08 µM.
Consider `Cc1ccc2nc(N3CCC(F)(F)c4ccccc4C3)nc(NCC3(N)COC3)c2c1` [Example 116-1, N-[(3-Aminooxetan-3-yl)methyl]-2-(5,5-difluoro-1,3,4,5-tetrahydro-2H-2-benzazepin-2-yl)-6-methylquinazolin-4-amine], for which the EC50 came to 0.005 µM.
The result for `Cc1ccc2nc(N3CCS(=O)(=O)c4ccccc4C3)cc(-c3cc[nH]n3)c2c1` [Example 101, 4-[6-Methyl-4-(1H-pyrazol-3-yl)quinolin-2-yl]-2,3,4,5-tetrahydro-1,4-benzothiazepine 1,1-dioxide] reads 8.58 µM; that for `Cc1ccc2nc(N3CCS(=O)(=O)c4ccccc4C3)cc(NCC(F)(F)C(F)(F)CN)c2c1` [Example 3-43, N-[2-(1,1-Dioxido-2,3-dihydro-1,4-benzothiazepin-4(5H)-yl)-6-methylquinolin-4-yl]-2,2,3,3-tetrafluorobutane-1,4-diamine], 2.39 µM.
The result for `Cc1ccc2nc(N3CCS(=O)(=O)c4ccccc4C3)cc(N3C[C@@H]4OC(N)=N[C@@H]4C3)c2c1` (relative stereo) [Example 38-5, cis-5-[2-(1,1-Dioxido-2,3-dihydro-1,4-benzothiazepin-4(5H)-yl)-6-methylquinolin-4-yl]-4,5,6,6a-tetrahydro-3aH-pyrrolo[3,4-d][1,3]oxazol-2-amine] reads 6.65 µM; that for `NC1=N[C@@H](CCc2cc(N3CCCc4ccccc4C3)nc3ccccc23)CO1` [Example 131, (4S)-4-{2-[2-(1,3,4,5-Tetrahydro-2H-2-benzazepin-2-yl)quinolin-4-yl]ethyl}-4,5-dihydro-1,3-oxazol-2-amine], 2.52 µM.
In the case of `Cc1ccc2nc(N3CCS(=O)(=O)c4ccccc4C3)cc(NCCS(=O)(=O)CCN)c2c1` [Example 75, N-{2-[(2-Aminoethyl)sulfonyl]ethyl}-2-(1,1-dioxido-2,3-dihydro-1,4-benzothiazepin-4(5H)-yl)-6-methylquinolin-4-amine] it was 0.002 µM; in that of `Cc1ccc2nc(N3CCS(=O)(=O)c4ccccc4C3)cc(NCCO)c2c1` [Example 3-38, 2-{[2-(1,1-Dioxido-2,3-dihydro-1,4-benzothiazepin-4(5H)-yl)-6-methylquinolin-4-yl]amino}ethanol], 0.0439 µM.
As to `Cc1ccc2nc(N3CCS(=O)(=O)c4ccccc4C3)cc(NC[C@H]3COC(N)=N3)c2c1` [Example 38-4, N-{[(4S)-2-Amino-4,5-dihydro-1,3-oxazol-4-yl]methyl}-2-(1,1-dioxido-2,3-dihydro-1,4-benzothiazepin-4(5 H)-yl)-6-methylquinolin-4-amine], the EC50 was found to be 0.064 µM.
In the case of `Cc1ccc2nc(N3CC[S+]([O-])c4ccccc4C3)nc(NCC(F)(F)CN)c2c1` (centres unmarked) [Example 56-2, 2,2-Difluoro-N-[6-methyl-2-(1-oxido-2,3-dihydro-1,4-benzothiazepin-4(5H)-yl)quinazolin-4-yl]propane-1,3-diamine] it was 0.023 µM; in that of `NCCNc1cc(N2CC[S+]([O-])c3ccccc3C2)nc2ccc(Cl)cc12` (centres unmarked) [Example 18-7, N-[6-Chloro-2-(1-oxido-2,3-dihydro-1,4-benzothiazepin-4(5H)-yl)quinolin-4-yl]ethane-1,2-diamine], 0.023 µM.
The result for `Cc1ccc2nc(N3CCS(=O)(=O)c4cc(Cl)ccc4C3)cc(NCC3(N)COC3)c2c1` [Example 1-6, N-[(3-Aminooxetan-3-yl)methyl]-2-(8-chloro-1,1-dioxido-2,3-dihydro-1,4-benzothiazepin-4(5H)-yl)-6-methylquinolin-4-amine] reads 0.022 µM.
In the case of `NCCCNc1cc(N2CCS(=O)(=O)c3ccccc3C2)nc2ccc(OC(F)(F)F)cc12` [Example 17-1, N-[2-(1,1-Dioxido-2,3-dihydro-1,4-benzothiazepin-4(5H)-yl)-6-(trifluoromethoxy)quinolin-4-yl]propane-1,3-diamine] it was 5.54 µM; in that of `Cc1cccc2c(NCCCN)cc(N3CCS(=O)(=O)c4ccccc4C3)nc12` [Example 17-5, N-[2-(1,1-Dioxido-2,3-dihydro-1,4-benzothiazepin-4(5H)-yl)-8-methylquinolin-4-yl]propane-1,3-diamine], 1.5 µM; in that of `Cc1ccc2nc(N3CC[S+]([O-])c4ccccc4C3)nc(NCC(F)CN)c2c1` (centres unmarked) [Example 55-3, 2-Fluoro-N-[6-methyl-2-(1-oxido-2,3-dihydro-1,4-benzothiazepin-4(5H)-yl)quinazolin-4-yl]propane-1,3-diamine], 0.006 µM.
On to `Cc1ccc2nc(N3CCS(=O)(=O)c4ccccc4C3)cc(NC[C@@H]3COC(N)=N3)c2c1` [Example 38-3, N-{[(4R)-2-Amino-4,5-dihydro-1,3-oxazol-4-yl]methyl}-2-(1,1-dioxido-2,3-dihydro-1,4-benzothiazepin-4(5H)-yl)-6-methylquinolin-4-amine], for which a half-maximal effect (EC50) was put at 0.074 µM.
In the case of `Cc1ccc2nc(N3CCS(=O)(=O)c4ccccc4C3)cc(NC(=O)[C@@H]3CCCN3)c2c1` [Example 27, N-[2-(1,1-Dioxido-2,3-dihydro-1,4-benzothiazepin-4(5H)-yl)-6-methylquinolin-4-yl]prolinamide] it was 2.39 µM; in that of `CCc1ccc2nc(N3CCS(=O)(=O)c4ccccc4C3)cc(NCCN)c2c1` [Example 9-10, N-[2-(1,1-Dioxido-2,3-dihydro-1,4-benzothiazepin-4(5H)-yl)-6-ethylquinolin-4-yl]ethane-1,2-diamine], 0.037 µM.
Take `Cc1ccc2nc(N3CC[S+]([O-])c4ccccc4C3)cc(NCCO)c2c1` (centres unmarked) [Example 18-11, 2-{[6-Methyl-2-(1-oxido-2,3-dihydro-1,4-benzothiazepin-4(5H)-yl)quinolin-4-yl]amino}ethanol]: the EC50 turned out to be 0.619 µM.
`Cc1ccc2nc(N3CCS(=O)(=O)c4ccccc4C3)cc(NCC3(CN)CC(F)(F)C3)c2c1` [Example 3-12, N-{[1-(Aminomethyl)-3,3-difluorocyclobutyl]methyl}-2-(1,1-dioxido-2,3-dihydro-1,4-benzothiazepin-4(5H)-yl)-6-methylquinolin-4-amine] displayed an EC50 of 1.65 µM.
In the case of `COc1ccc2c(c1)CN(c1cc(NCC3(N)COC3)c3cc(C)ccc3n1)CCS2(=O)=O` [Example 1-5, N-[(3-Aminooxetan-3-yl)methyl]-2-(7-methoxy-1,1-dioxido-2,3-dihydro-1,4-benzothiazepin-4(5H)-yl)-6-methylquinolin-4-amine], it took 0.004 µM to reach a half-maximal effect (EC50).
As to `Cc1ccc2nc(N3CCS(=O)(=O)c4ccc(N5CCOCC5)cc4C3)cc(NCC3(N)COC3)c2c1` [Example 33-1, N-[(3-Aminooxetan-3-yl)methyl]-2-(7-morpholin-4-yl-1,1-dioxido-2,3-dihydro-1,4-benzothiazepin-4(5H)-yl)-6-methylquinolin-4-amine], the response was half-maximal at 0.044 µM (EC50).
`Cc1ccc2nc(N3CCS(=O)(=O)c4ccccc4C3)cc(NCC(C)C(N)=O)c2c1` (centres unmarked) [Example 36-3, 3-{[2-(1,1-Dioxido-2,3-dihydro-1,4-benzothiazepin-4(5H)-yl)-6-methylquinolin-4-yl]amino}-2-methylpropanamide] displayed an EC50 of 2.15 µM.
In the case of `Cc1ccc2nc(N3CCS(=O)(=O)c4ccccc4C3)cc(NCC(C)(C)N)c2c1` [Example 5-3, N˜1˜-[2-(1,1-Dioxido-2,3-dihydro-1,4-benzothiazepin-4(5H)-yl)-6-methylquinolin-4-yl]-2-methylpropane-1,2-diamine] it was 0.015 µM; in that of `NC1=NCC(CNc2cc(N3CCCc4ccccc4C3)nc3ccccc23)O1` (centres unmarked) [Example 126-1, N-[(2-Amino-4,5-dihydro-1,3-oxazol-5-yl)methyl]-2-(1,3,4,5-tetrahydro-2H-2-benzazepin-2-yl)quinolin-4-amine trifluoroacetate], 0.79 µM.
In the case of `O=S1(=O)CCN(c2cc(NCC(O)CO)c3cc(Cl)ccc3n2)Cc2ccccc21` (centres unmarked) [Example 32-2, 3-{[6-Chloro-2-(1,1-dioxido-2,3-dihydro-1,4-benzothiazepin-4(5H)-yl)quinolin-4-yl]amino}propane-1,2-diol] it was 2.45 µM.
In the case of `Cc1ccc2nc(N3CCS(=O)(=O)c4ccccc4C3)cc(NC[C@@H](C)N)c2c1` [Example 5-9, (2R)—N˜1˜-[2-(1,1-Dioxido-2,3-dihydro-1,4-benzothiazepin-4(5H)-yl)-6-methylquinolin-4-yl]propane-1,2-diamine] it was 0.018 µM.

The EC50 is the concentration at which the effect is half-maximal. A high value points to a less potent agent.

The values are drawn from US8871756B2 (Hoffmann-La Roche Inc., priority 2011, dated 2014).
